biological target: Sigma non-opioid intracellular receptor 1 (Cavia porcellus) (UniProt Q60492); experiment: Inhibition of [3H](+)-pentazocine binding to sigma-1 receptor in guinea pig brain membranes
Sequence (Q60492 whole entry, looked up): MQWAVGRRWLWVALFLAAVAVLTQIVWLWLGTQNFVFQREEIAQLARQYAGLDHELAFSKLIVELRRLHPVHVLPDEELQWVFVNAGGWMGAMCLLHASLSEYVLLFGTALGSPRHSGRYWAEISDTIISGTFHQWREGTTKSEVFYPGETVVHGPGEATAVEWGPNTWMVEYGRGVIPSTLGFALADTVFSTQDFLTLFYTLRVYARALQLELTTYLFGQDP

Ki [nM]	SMILES
41.8	COc1ccc(S(=O)(=O)NCCN2CCCCC2)cc1I [3-Iodo-4-methoxy-N-(2-piperidin-1-yl-ethyl)-benzenesulfonamide]
10.1	CCN(CC)CCNS(=O)(=O)c1ccc(Br)cc1 [4-Bromo-N-(2-diethylamino-ethyl)-benzenesulfonamide]
1.54	O=S(=O)(NCCN1CCCCC1)c1ccc(Br)cc1 [4-Bromo-N-(2-piperidin-1-yl-ethyl)-benzenesulfonamide]
6.65	O=S(=O)(NCCN1CCCC1)c1ccc(Br)cc1 [4-Bromo-N-(2-pyrrolidin-1-yl-ethyl)-benzenesulfonamide]
0.46	O=S(=O)(NCCN1CCCCC1)c1ccc(I)cc1 [4-Iodo-N-(2-piperidin-1-yl-ethyl)-benzenesulfonamide]
4.3	O=S(=O)(NCCN1CCCC1)c1ccc(I)cc1 [4-Iodo-N-(2-pyrrolidin-1-yl-ethyl)-benzenesulfonamide]
3.11	COc1ccc(S(=O)(=O)N(C)CCN2CCCCCC2)cc1I [N-(2-Azepan-1-yl-ethyl)-3-iodo-4-methoxy-N-methyl-benzenesulfonamide]
0.18	CN(CCN1CCCCCC1)S(=O)(=O)c1ccc(Br)cc1 [N-(2-Azepan-1-yl-ethyl)-4-bromo-N-methyl-benzenesulfonamide]
0.63	O=S(=O)(NCCN1CCCCCC1)c1ccc(Br)cc1 [N-(2-Azepan-1-yl-ethyl)-4-bromo-benzenesulfonamide]
0.14	CN(CCN1CCCCCC1)S(=O)(=O)c1ccc(I)cc1 [N-(2-Azepan-1-yl-ethyl)-4-iodo-N-methyl-benzenesulfonamide]
1.32	O=S(=O)(NCCN1CCCCCC1)c1ccc(I)cc1 [N-(2-Azepan-1-yl-ethyl)-4-iodo-benzenesulfonamide]
4.97	CCN(CC)CCNS(=O)(=O)c1ccc(I)cc1 [N-(2-Diethylamino-ethyl)-4-iodo-benzenesulfonamide]

Source: BindingDB's records for doi:10.1021/jm9800447 (The George Washington University Medical Center, 1998)
